Consider 1 compound from US20240385180A1, “PRODUCTION OF ORGANOID DERIVED FROM CTC OF SMALL CELL LUNG CANCER PATIENT, AND IGF1R INHIBITOR AS A MOLECULAR TARGET DRUG FOR SMALL CELL LUNG CANCER” (KEIO UNIVERSITY, priority 2021, published 2024).

Assay [1] has as its system IGF-dependent small cell lung cancer organoids. Nature of the assay: Effect of IGF1R inhibitor in vitro: number of living cells (CellTiter-Glo). The format is cell-based, human. The settings on record: 0.1, 1, 10, 100 μM in complete medium, fifth day after adding the drug, vs DMSO.
Protocol: An IGF1R inhibitor was added to the medium of small cell lung cancer organoids, and the effect on the growth of small cell lung cancer organoids was investigated. As small cell lung cancer organoids, a plurality of types of each of IGF-dependent small cell lung cancer organoid lines and IGF-independent small cell lung cancer organoid lines were used. Furthermore, linsitinib (CAS number: 867160-71-2) was used as an IGF1R inhibitor. In addition, the number of living cells was measured using a commercially available kit (product name “CellTiter-Glo”, Promega). A small cell lung cancer organoid was dissociated into a single cell using TrypLE Express (Thermo Fisher Scientific), and further filtered using a 20 μm cell strainer. Then, 3×10^3 per well cells were seeded and cultured in complete medium added with 0.1, 1, 10, and 100 μM lincitinib. In addition, as a control, a group in which dimethyl sulfoxide (DMSO), which was used as a solvent for linsitinib, was added was also prepared. The number of living cells was measured on the fifth day after adding the drug.
For assay [2] the test system is unchanged. Put plainly: In vitro apoptosis assay (Annexin V-FITC / propidium iodide flow cytometry). The format is cell-based, human. The following applies: 1 μM, cultured for 5 days, vs DMSO. As to the method:
An IGF1R inhibitor was added to the medium of small cell lung cancer organoids, and the occurrence of apoptosis was measured. First, a small cell lung cancer organoid was dissociated into a single cell using TrypLE Express (Thermo Fisher Scientific), further, filtered using a 20 μm cell strainer. Next, add 5×10^4 cells per well were seeded to a […], and cultured for 5 days in the presence of 1 μM IGF1R inhibitor or 1 μM FGFR inhibitor. DMSO was added to the control cell culture medium. Subsequently, using a commercially available kit (product name “TACS Annexin V-FITC Apoptosis Detection Kit”, R&D System), the induction of apoptosis was measured by flow cytometry using the BD FACSCalibur system (Becton Dickinson). FIG. 10 is a graph showing the results of the flow cytometry. In FIG. 10, the propidium iodide-positive and Annexin V-positive cells are the cells in which apoptosis was induced.
(In general: Flow cytometry measures light scatter and fluorescence of single cells or particles in a stream.)

Assay [3] relates to KOR317 line (YAP1 positive subtype, IGF-dependent small cell lung cancer organoid). Put plainly: Effect of IGF1R inhibitor in vivo: tumor volume in mice transplanted with KOR317 line. The following applies: KOR317 (YAP1-positive, IGF-dependent) subcutaneous in NOD/Shi-scid, IL-2Rγ mice; 50 mg/kg once a day, 5 days a week, 5 weeks; vs vehicle. The protocol: (§1) Specifically, first, small cell lung cancer organoids (KOR317 line and KOR457 line) were peeled off from Matrigel (registered trademark) using cell recovery solution (BD Bioscience). The peeled small cell lung cancer organoids were kept on ice for 30 minutes while being loosened by pipetting every 10 minutes. Next, approximately 1×10^5 of respective small cell lung cancer organoids was resuspended in about 50 μL of Matrigel, and the respective suspensions was subcutaneously injected into mice. As the mice, 6-10 weeks old NOD/Shi-scid, IL-2Rγ mice were used. Once the tumor diameter (long×short×height/2) was approximately 100-150 mm^3, the subjects were randomly divided into a drug administration group and a placebo treatment group. Each group was set as n≥3. Subsequently, linsitinib (50 mg/kg) was administered to the drug administration group, and vehicle was administered to the placebo treatment group once a day, 5 days a week, for a total of 5 weeks. Linsitinib was dissolved in 30% PEG400-0.5% tween80-5% propylene glycol (vehicle) and administered. Tumor diameter (major axis×short axis×height/2) was measured once a week.

For assay [4], the system named is KOR457 line (ASCL1 positive subtype, IGF-independent small cell lung cancer organoid). Nature of the assay: Effect of IGF1R inhibitor in vivo: tumor volume in mice transplanted with KOR457 line. The settings on record: KOR457 (ASCL1-positive, IGF-independent) subcutaneous in NOD/Shi-scid, IL-2Rγ mice; 50 mg/kg once a day, 5 days a week, 5 weeks; vs vehicle. As to the method: as §1

Structures are written as SMILES.

For `C[C@]1(O)C[C@@H](c2nc(-c3ccc4ccc(-c5ccccc5)nc4c3)c3c(N)nccn32)C1` [IGF1R inhibitor, linsitinib], the “growth of organoids (number of living cells)” value in assay [1] is “inhibits the growth”. In assay [2], the “induction of apoptosis (propidium iodide-positive and Annexin V-positive cells)” value is “induces apoptosis”. For the same compound, the “tumor growth (tumor volume over time)” value is given as “tumor growth was suppressed” in assay [3] and “no effect” in assay [4].
